Laboratory results reported in PubChem BioAssay AID2060483 (Molecular Pharmacology Branch, DTP, NCI, 2025).

System: K24384-001-R-PDC complex spheroids, viability
Experiment: Anticancer human tumor K24384-001-R-PDC patient-derived pancreatic adenocarcinoma cell line growth inhibition [GQUAD]
Details: for IC50: curve of first compound; for viability, T/C: stronger effect = lower value
Method in brief: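 Tumor cells were grown as complex spheroids with HUVEC endothelial cells and mesenchymal stem cells as stroma. G-quadruplex stabilizers were combined with targeted agents over half-log dilutions from near the clinical Cmax, or from 10 microM.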

[1] = second compound 0.0316 µM, first compound 0.0316 µM
[2] = second compound 0.0316 µM, first compound 0.1 µM
[3] = second compound 0.0316 µM, first compound 0.316 µM
[4] = second compound 0.0316 µM, first compound 1 µM
[5] = second compound 0.0316 µM, first compound 3.16 µM
[6] = second compound 0.0316 µM, first compound 10 µM
[7] = second compound 0.1 µM, first compound 0.0316 µM
[8] = second compound 0.1 µM, first compound 0.1 µM
[9] = second compound 0.1 µM, first compound 0.316 µM
[10] = second compound 0.1 µM, first compound 1 µM
[11] = second compound 0.1 µM, first compound 3.16 µM
[12] = second compound 0.1 µM, first compound 10 µM
[13] = second compound 0.316 µM, first compound 0.0316 µM
[14] = second compound 0.316 µM, first compound 0.1 µM
[15] = second compound 0.316 µM, first compound 0.316 µM
[16] = second compound 0.316 µM, first compound 1 µM
[17] = second compound 0.316 µM, first compound 3.16 µM
[18] = second compound 0.316 µM, first compound 10 µM
[19] = second compound 1 µM, first compound 0.0316 µM
[20] = second compound 1 µM, first compound 0.1 µM
[21] = second compound 1 µM, first compound 0.316 µM
[22] = second compound 1 µM, first compound 1 µM
[23] = second compound 1 µM, first compound 3.16 µM
[24] = second compound 1 µM, first compound 10 µM
[25] = second compound 3.16 µM, first compound 0.0316 µM
[26] = second compound 3.16 µM, first compound 0.1 µM
[27] = second compound 3.16 µM, first compound 0.316 µM
[28] = second compound 3.16 µM, first compound 1 µM
[29] = second compound 3.16 µM, first compound 3.16 µM
[30] = second compound 3.16 µM, first compound 10 µM
[31] = second compound 10 µM, first compound 0.0316 µM
[32] = second compound 10 µM, first compound 0.1 µM
[33] = second compound 10 µM, first compound 0.316 µM
[34] = second compound 10 µM, first compound 1 µM
[35] = second compound 10 µM, first compound 3.16 µM
[36] = second compound 10 µM, first compound 10 µM
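Also: spheroids exposed to compounds for seven days.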

For `C=CCn1c(=O)c2cnc(Nc3ccc(N4CCN(C)CC4)cc3)nc2n1-c1cccc(C(C)(C)O)n1` + CN(C)c1ccc(Nc2c3ccc(NC(=O)CCN4CCCC4)cc3nc3cc(NC(=O)CCN4CCCC4)ccc23)cc1, the IC50 (second compound 0.0316 µM) was 392 nM, the IC50 (second compound 0.1 µM) was 266 nM and the IC50 (second compound 0.316 µM) was 236 nM. The IC50 (second compound 1 µM) was 275 nM, the IC50 (second compound 3.16 µM) was 235 nM and the IC50 (second compound 10 µM) was 229 nM. For the same molecule, the viability, T/C [1] was 85.5%, the viability, T/C [2] was 81% and the viability, T/C [3] was 57.3%. It also gave a viability, T/C [4] of 18%, a viability, T/C [5] of 15.9% and a viability, T/C [6] of 17.9%. For the same molecule, the viability, T/C [7] was 76.2%, the viability, T/C [8] was 68.9% and the viability, T/C [9] was 47%. The viability, T/C [10] was 15.6%, the viability, T/C [11] was 14% and the viability, T/C [12] was 14.8%. For the same molecule, the viability, T/C [13] was 80.2%, the viability, T/C [14] was 86.7% and the viability, T/C [15] was 38.6%. The viability, T/C [16] was 16.3%, the viability, T/C [17] was 12% and the viability, T/C [18] was 14.5%. The viability, T/C [19] was 76.7%, the viability, T/C [20] was 83.3% and the viability, T/C [21] was 45.9%. It also gave a viability, T/C [22] of 19.1%, a viability, T/C [23] of 12.2% and a viability, T/C [24] of 18%. For the same molecule, the viability, T/C [25] was 84.2%, the viability, T/C [26] was 80.3% and the viability, T/C [27] was 39.3%. It also gave a viability, T/C [28] of 19.3%, a viability, T/C [29] of 16.3% and a viability, T/C [30] of 13.6%. For the same molecule, the viability, T/C [31] was 63.5%, the viability, T/C [32] was 64.8% and the viability, T/C [33] was 44.5%. The viability, T/C [34] was 20%, the viability, T/C [35] was 16.9% and the viability, T/C [36] was 13.1%.

With `CC(C)(O)C1CCC(Nc2ccc3ncc(-c4cccc(C(F)(F)F)c4)n3n2)CC1` (stereo not given) + CN(C)c1ccc(Nc2c3ccc(NC(=O)CCN4CCCC4)cc3nc3cc(NC(=O)CCN4CCCC4)ccc23)cc1 the IC50 (second compound 0.0316 µM) was 2350 nM, the IC50 (second compound 0.1 µM) was 2030 nM and the IC50 (second compound 0.316 µM) was 2380 nM. For the same molecule, the IC50 (second compound 1 µM) was 2160 nM, the IC50 (second compound 3.16 µM) was 1890 nM and the IC50 (second compound 10 µM) was 1240 nM. The viability, T/C [1] was 106%, the viability, T/C [2] was 106% and the viability, T/C [3] was 102%. For the same molecule, the viability, T/C [4] was 84.6%, the viability, T/C [5] was 37.5% and the viability, T/C [6] was 37.2%. For the same molecule, the viability, T/C [7] was 105%, the viability, T/C [8] was 104% and the viability, T/C [9] was 96.4%. For the same molecule, the viability, T/C [10] was 79%, the viability, T/C [11] was 30.5% and the viability, T/C [12] was 33.4%. The viability, T/C [13] was 104%, the viability, T/C [14] was 98.1% and the viability, T/C [15] was 98%. It also gave a viability, T/C [16] of 94.6%, a viability, T/C [17] of 35.4% and a viability, T/C [18] of 34.3%. The viability, T/C [19] was 106%, the viability, T/C [20] was 109% and the viability, T/C [21] was 109%. For the same molecule, the viability, T/C [22] was 82%, the viability, T/C [23] was 28.6% and the viability, T/C [24] was 39.6%. For the same molecule, the viability, T/C [25] was 100%, the viability, T/C [26] was 101% and the viability, T/C [27] was 107%. The viability, T/C [28] was 77.4%, the viability, T/C [29] was 26.2% and the viability, T/C [30] was 29.8%. It also gave a viability, T/C [31] of 94.4%, a viability, T/C [32] of 98% and a viability, T/C [33] of 77.9%. For the same molecule, the viability, T/C [34] was 61.5%, the viability, T/C [35] was 16.9% and the viability, T/C [36] was 16.9%.

`COc1ncnc(C2CC2)c1-c1ncc2cnn(Cc3ccc(-c4nc(C(F)(F)F)cn4C(C)C)cc3)c2n1` + CN(C)c1ccc(Nc2c3ccc(NC(=O)CCN4CCCC4)cc3nc3cc(NC(=O)CCN4CCCC4)ccc23)cc1 showed an IC50 (second compound 0.0316 µM) greater than 10000 nM, an IC50 (second compound 0.1 µM) greater than 10000 nM and an IC50 (second compound 0.316 µM) greater than 10000 nM. For the same molecule, the IC50 (second compound 1 µM) was greater than 10000 nM, the IC50 (second compound 3.16 µM) was greater than 10000 nM and the IC50 (second compound 10 µM) was 6950 nM. It also gave a viability, T/C [1] of 85%, a viability, T/C [2] of 107% and a viability, T/C [3] of 107%. The viability, T/C [4] was 96.9%, the viability, T/C [5] was 83.6% and the viability, T/C [6] was 104%. It also gave a viability, T/C [7] of 73.9%, a viability, T/C [8] of 86.3% and a viability, T/C [9] of 100%. The viability, T/C [10] was 86.1%, the viability, T/C [11] was 96.7% and the viability, T/C [12] was 110%. For the same molecule, the viability, T/C [13] was 79.9%, the viability, T/C [14] was 90.7% and the viability, T/C [15] was 77%. It also gave a viability, T/C [16] of 102%, a viability, T/C [17] of 97.2% and a viability, T/C [18] of 93.5%. For the same molecule, the viability, T/C [19] was 88.1%, the viability, T/C [20] was 84.2% and the viability, T/C [21] was 88.6%. The viability, T/C [22] was 95.6%, the viability, T/C [23] was 73.7% and the viability, T/C [24] was 88.6%. The viability, T/C [25] was 85.1%, the viability, T/C [26] was 112% and the viability, T/C [27] was 85.6%. The viability, T/C [28] was 79.1%, the viability, T/C [29] was 86.9% and the viability, T/C [30] was 91.8%. It also gave a viability, T/C [31] of 65.7%, a viability, T/C [32] of 99.2% and a viability, T/C [33] of 79.2%. The viability, T/C [34] was 88%, the viability, T/C [35] was 70.4% and the viability, T/C [36] was 40.6%.

Molecule `O=C(NO)c1cnc(N2CCN(S(=O)(=O)c3ccc4ccccc4c3)CC2)nc1` + CN(C)c1ccc(Nc2c3ccc(NC(=O)CCN4CCCC4)cc3nc3cc(NC(=O)CCN4CCCC4)ccc23)cc1 has an IC50 (second compound 0.0316 µM) of 603 nM, an IC50 (second compound 0.1 µM) of 511 nM and an IC50 (second compound 0.316 µM) of 553 nM. The IC50 (second compound 1 µM) was 554 nM, the IC50 (second compound 3.16 µM) was 475 nM and the IC50 (second compound 10 µM) was 476 nM. The viability, T/C [1] was 111%, the viability, T/C [2] was 91.6% and the viability, T/C [3] was 83.1%. It also gave a viability, T/C [4] of 25.2%, a viability, T/C [5] of 0.22% and a viability, T/C [6] of 0.18%. For the same molecule, the viability, T/C [7] was 111%, the viability, T/C [8] was 97.7% and the viability, T/C [9] was 70.1%. The viability, T/C [10] was 23.5%, the viability, T/C [11] was 0.13% and the viability, T/C [12] was 0.14%. The viability, T/C [13] was 108%, the viability, T/C [14] was 126% and the viability, T/C [15] was 74.3%. It also gave a viability, T/C [16] of 23.4%, a viability, T/C [17] of 0.14% and a viability, T/C [18] of 0.18%. The viability, T/C [19] was 107%, the viability, T/C [20] was 117% and the viability, T/C [21] was 73.6%. It also gave a viability, T/C [22] of 24.3%, a viability, T/C [23] of 0.16% and a viability, T/C [24] of 0.16%. For the same molecule, the viability, T/C [25] was 105%, the viability, T/C [26] was 103% and the viability, T/C [27] was 65.3%. The viability, T/C [28] was 20.6%, the viability, T/C [29] was 0.14% and the viability, T/C [30] was 0.16%. The viability, T/C [31] was 105%, the viability, T/C [32] was 92.3% and the viability, T/C [33] was 65.1%. For the same molecule, the viability, T/C [34] was 24.7%, the viability, T/C [35] was 0.22% and the viability, T/C [36] was 0.22%.

`CC1COCCN1c1cc(-c2ccnn2C)c2ccnc(-c3ccn[nH]3)c2n1` (stereo not given) + Cc1[nH]c2ccc(F)cc2c1-c1nc2c3cccnc3c3ncccc3c2[nH]1 gave an IC50 (second compound 0.0316 µM) of 215 nM, an IC50 (second compound 0.1 µM) of 242 nM and an IC50 (second compound 0.316 µM) of 219 nM. It also gave an IC50 (second compound 1 µM) of 178 nM, an IC50 (second compound 3.16 µM) of 57.6 nM and an IC50 (second compound 10 µM) of 51.1 nM. The viability, T/C [1] was 84.6%, the viability, T/C [2] was 63.7% and the viability, T/C [3] was 45.1%. For the same molecule, the viability, T/C [4] was 28.7%, the viability, T/C [5] was 44.8% and the viability, T/C [6] was 31.8%. For the same molecule, the viability, T/C [7] was 68.7%, the viability, T/C [8] was 68.9% and the viability, T/C [9] was 44.3%. It also gave a viability, T/C [10] of 31.1%, a viability, T/C [11] of 45% and a viability, T/C [12] of 36.5%. The viability, T/C [13] was 71.4%, the viability, T/C [14] was 76.5% and the viability, T/C [15] was 38.7%. It also gave a viability, T/C [16] of 33.5%, a viability, T/C [17] of 39.8% and a viability, T/C [18] of 38.2%. The viability, T/C [19] was 62.1%, the viability, T/C [20] was 64.6% and the viability, T/C [21] was 29.5%. The viability, T/C [22] was 41.5%, the viability, T/C [23] was 39.6% and the viability, T/C [24] was 36.3%. The viability, T/C [25] was 55.5%, the viability, T/C [26] was 48.1% and the viability, T/C [27] was 31.4%. For the same molecule, the viability, T/C [28] was 41%, the viability, T/C [29] was 29.3% and the viability, T/C [30] was 35.7%. It also gave a viability, T/C [31] of 57.4%, a viability, T/C [32] of 39.9% and a viability, T/C [33] of 30.3%. The viability, T/C [34] was 31.5%, the viability, T/C [35] was 24.1% and the viability, T/C [36] was 28.9%.
